Measured values taken from patent US11952364B2, “TRK inhibitors useful as anticancer drugs” (TYLIGAND BIOSCIENCE (SHANGHAI) LIMITED, priority 2018, dated 2024).

system: Ba/F3 ETV6-NTRK3 cells; assay: Proliferation of Ba/F3 ETV6-NTRK3 cells (CellTiter-Glo); type: cell-based; conditions: Mus musculus, BaF3; Table 3; 72 hours
Text: Ba/F3 ETV6-NTRK3 is a stable transgenic cell line constructed by KYinno Biotechnology Co., Ltd. on mouse primary B cell Ba/F3 wherein NTRK3 is highly expressed and fused with ETV6 to form ETV6-NTRK3. • [Test method]: Promega's CellTiter-Glo® Luminescent Cell Viability Assay kit was used to evaluate the inhibitory activity of the compounds on the proliferation of Ba/F3 ETV6-NTRK3 cells. • [Instrument]: Spectramax M3 multifunctional microplate reader from Molecular Devices. • [Test materials]: Ba/F3 ETV6-NTRK3 cell line (constructed by KYinno Biotechnology Co., Ltd. (Beijing)), 96-well transparent flat-bottomed black-walled cell culture plate (Corning, cat #3603), RPMI-1640 media (GE, cat #SH30027.01), fetal bovine serum FBS (Thermo Fisher, cat #10099-141), CellTiter-Glo® Luminescent Cell Viability Assay kit (Promega, cat #G7572), PBS (Solarbio, cat #P1020), DMSO (Sigma, cat #D2650). • [Experimental procedure]: When resuscitating Ba/F3 ETV6-NTRK3 cells, the freezing tube was quickly shaken in a 37° C. water bath to melt within 1 minute. The thawed cell suspension was mixed uniformly with RPMI1640 medium containing 10% FBS, centrifuged at 1000 rpm for 5 minutes, and the supernatant discarded. 5 mL of complete medium (RPMI1640 medium with 10% FBS) was taken to resuspend the cell pellets, charged into a cell culture flask with a bottom area of 25 cm^2, and incubated in a cell incubator at 37° C., 95% humidity and 5% CO2. Cells were allowed to passage when the number of cells reached about 10^6 cells/mL. For cell passage, the old cell suspension was directly pipetted evenly, 1/5 of the cell suspension was kept, 4 mL of new complete medium was added, after pipetting evenly, the cell flask was placed in the cell incubator for further culturing. Cell plating was performed when the number of cells reached about 10^6 cells/mL again. For cell plating, 1/5 of the cell suspension was kept for further culturing as in the cell passage method, and the remaining 4/5 of the cell suspension was placed in a 15 mL centrifuge tube, detected for cell viability by Trypan blue exclusion method to ensure that cell viability was above 90%. A cell suspension with a density of 5.56×10^4 viable cells/mL was prepared with complete medium, and 90 μL of such cell suspension was added to a 96-well cell culture plate to obtain the cell density of 5000 viable cells/mL in the cell culture plate. A control group containing no cells, no compound and only complete medium (i.e. culture medium control) and a control group containing no compound but containing cells (i.e. cell control) were set. The cell plate was placed in a cell incubator overnight. The 10 mM compound stock solution in DMSO was first serially diluted with DMSO at a dilution factor of 3.16 times, to obtain 9 concentrations, and the 10th concentration was set as DMSO control without compound. Then, PBS was used to dilute the DMSO solutions of compounds of different concentrations, at a dilution factor of 100 times, so that the DMSO concentration in the compound solution of each concentration was 1%. Finally, 10 μL of each of the above solutions was added to the corresponding cell culture plate, so that the initial compound concentration was 10 μM, with the remaining concentrations being successively diluted at a dilution factor of 3.16 times, and the DMSO content in the cell culture plate was 0.1%. The cell plate was placed in a cell incubator and cultured for 72 hours. For endpoint detection, the CellTiter-Glo reagent was melted, and the cell plate was moved to room temperature to equilibrate for 30 minutes, added with 100 μL of CellTiter-Glo for each well, and shaken on an orbital shaker for 5 minutes to fully lyse the cells. The plate was kept at room temperature for 20 minutes to stabilize the luminescence signal, and the luminescence value of each well was scanned with a multi-functional microplate reader at full wavelength. • [Test samples]

**Q.** `CCc1ccc(C(=O)Nc2ccc(Oc3cc4cnn(C)c4cc3-c3cn[nH]c3)c(F)c2)c(=O)n1-c1ccc(F)cc1` [Example 5, N-(3-fluoro-4-(1-methyl-6-(1H-pyrazol-4-yl)-1H-indazol-5-yloxy)phenyl)-1-(4-fluorophenyl)-6-ethyl-2-oxo-1,2-dihydropyridine-3-carboxamide] was tested. Which IC50 did it give?
**A.** 60 nM

**Q.** `Cn1ncc2cc(Oc3ccc(NC(=O)c4ccc(C(F)(F)F)n(-c5ccc(F)cc5)c4=O)cc3F)c(-c3cn[nH]c3)cc21` [Example 1, N-(3-fluoro-4-(1-methyl-6-(1H-pyrazol-4-yl)-1H-indazol-5-yloxy)phenyl)-1-(4-fluorophenyl)-6-trifluoromethyl-2-oxo-1,2-dihydmpyridine-3-carboxamide monomethanesulfonate] was tested. Which IC50 did it give?
**A.** 435 nM

**Q.** `CC(C)c1ccc(C(=O)Nc2ccc(Oc3cc4cnn(C)c4cc3-c3cn[nH]c3)c(F)c2)c(=O)n1-c1ccc(F)cc1` [Example 6, N-(3-fluoro-4-(1-methyl-6-(1H-pyrazol-4-yl)-1H-indazol-5-yloxy)phenyl)-1-(4-fluorophenyl)-6-isopropyl-2-oxo-1,2-dihydropyridine-3-carboxamide] was tested. Which IC50 did it give?
**A.** 284 nM

**Q.** For `O=C(Nc1cnn2ccc(N3CCC[C@@H]3c3cc(F)ccc3F)nc12)N1CC[C@H](O)C1` [LOXO-101, Larotrectinib, reference compound], which IC50 is on record?
**A.** 5 nM

**Q.** With `Cc1ccc(C(=O)Nc2ccc(Oc3cc4cnn(C(C)C)c4cc3-c3cn[nH]c3)c(F)c2)c(=O)n1-c1ccc(F)cc1` [Example 4, N-(3-fluoro-4-(1-isopropyl-6-(1H-pyrazol-4-yl)-1H-indazol-5-yloxy)phenyl)-1-(4-fluorophenyl)-6-methyl-2-oxo-1,2-dihydmpyridine-3-carboxamide] as the compound, how does the IC50 read?
**A.** 762 nM

**Q.** For `Cn1ncc2cc(Oc3ccc(NC(=O)c4ccc(C5CC5)n(-c5ccc(F)cc5)c4=O)cc3F)c(-c3cn[nH]c3)cc21` [Example 2, N-(3-fluoro-4-(1-methyl-6-(1H-pyrazol-4-yl)-1H-indazol-5-yloxy)phenyl)-1-(4-fluorophenyl)-6-cyclopropyl-2-oxo-1,2-dihydmpyridine-3-carboxamide], which IC50 is on record?
**A.** 94 nM

**Q.** How did the IC50 turn out when `Cc1ccc(C(=O)Nc2ccc(Oc3cc4cnn(C)c4cc3-c3cn[nH]c3)c(F)c2)c(=O)n1-c1ccc(F)cc1` [Merestinib, reference compound] was run?
**A.** 684 nM

**Q.** `CCn1ncc2cc(Oc3ccc(NC(=O)c4ccc(C)n(-c5ccc(F)cc5)c4=O)cc3F)c(-c3cn[nH]c3)cc21` [Example 3, N-(3-fluoro-4-(1-ethyl-6-(1H-pyrazol-4-yl)-1H-indazol-5-yloxy)phenyl)-1-(4-fluorophenyl)-6-methyl-2-oxo-1,2-dihydmpyridine-3-carboxamide] was tested. Which IC50 did it give?
**A.** 663 nM

system: MKN45 cells; assay: Proliferation of MKN45 cells; type: cell-based; conditions: Homo sapiens, MKN-45; Table 8
Experimental: MKN45 is a human poorly differentiated gastric cancer cell line with high MET expression. Cell proliferation experiments were performed according to literature methods (Zhang, D. et al. Bioorg. Med. Chem. 2013, 21, 6804; Riss, T. L.; Moravec, R. A.; Niles, A. L.; et al. Cell Viability Assays 2013 May 1 [Updated 2016 Jul. 1]. In: Sittampalam, G. S.; Grossman, A.; Brimacombe, K.; et al., editors. Assay Guidance Manual [Internet]. Bethesda (MD): Eli Lilly & Company and the National Center for Advancing Translational Sciences; 2004-. Available from: https://www.ncbi.nlm.nih.gov/books/NBK144065/).

**Q.** `O=C(Nc1cnn2ccc(N3CCC[C@@H]3c3cc(F)ccc3F)nc12)N1CC[C@H](O)C1` [LOXO-101, Larotrectinib, reference compound] was tested. Which IC50 did it give?
**A.** > 10000 nM

**Q.** With `CSc1ccc(C(=O)Nc2ccc(Oc3cc4cnn(C)c4cc3-c3cn[nH]c3)c(F)c2)c(=O)n1-c1ccc(F)cc1` [Example 11, N-(3-fluoro-4-(1-methyl-6-(1H-pyrazol-4-yl)-1H-indazol-5-yloxy)phenyl)-1-(4-fluorophenyl)-6-methylthio-2-oxo-1,2-dihydropyidine-3-carboxamide] as the compound, how does the IC50 read?
**A.** 12 nM

**Q.** `CCOc1ccc(C(=O)Nc2ccc(Oc3cc4cnn(C)c4cc3-c3cn[nH]c3)c(F)c2)c(=O)n1-c1ccc(F)cc1` [Example 14, N-(3-fluoro-4-(1-methyl-6-(1H-pyrazol-4-yl)-1H-indazol-5-yloxy)phenyl)-1-(4-fluorophenyl)-6-ethoxy-2-oxo-12-dihydropyridine-3-carboxamide] was tested. Which IC50 did it give?
**A.** 11 nM

**Q.** For `CC(C)Oc1ccc(C(=O)Nc2ccc(Oc3cc4cnn(C)c4cc3-c3cn[nH]c3)c(F)c2)c(=O)n1-c1ccc(F)cc1` [Example 16, N-(3-fluoro-4-(1-methyl-6-(1H-pyrazol-4-yl)-1H-indazol-5-yloxy)phenyl)-1-(4-fluorophenyl)-6-isopropoxy-2-oxo-1,2-dihydropyridine-3-carboxamide], which IC50 is on record?
**A.** 9 nM

**Q.** With `Cc1ccc(C(=O)Nc2ccc(Oc3cc4cnn(C)c4cc3-c3cn[nH]c3)c(F)c2)c(=O)n1-c1ccc(F)cc1` [Merestinib, reference compound] as the compound, how does the IC50 read?
**A.** 19 nM

**Q.** `COc1ccc(C(=O)Nc2ccc(Oc3cc4cnn(C)c4cc3-c3cn[nH]c3)c(F)c2)c(=O)n1-c1ccc(F)cc1` [Example 12, N-(3-fluoro-4-(1-methyl-6-(1H-pyrazol-4-yl)-1H-indazol-5-yloxy)phenyl)-1-(4-fluorophenyl)-6-methoxy-2-oxo-1,2-dihydropyridine-3-carboxamide] was tested. Which IC50 did it give?
**A.** 4 nM
